Measurements taken from patent US20100056791A1, “Pyrazolopyridine carboxamide derivative and phosphodiesterase (pde) inhibitor containing the same” (priority 2006, published 2010).

How the values were obtained:
[1] = molecular target: T1, PDE4B catalytic domain (PDE4Bcat) (Homo sapiens, UniProt Q07343); assay: Phosphodiesterase inhibitory activity ([3H]cAMP breakdown, recombinant PDE4Bcat); type: biochemical; conditions: 30° C. 20 minutes, read-out: IC50(μmol/L) PDE4
T1 construct: The cDNA of PDE4B catalytic domain (hereinafter abbreviated as Cat) was isolated from human RNA by RT-PCR; made in house; host or cells: Sf9 insect cells (baculovirus, Gateway / Bac-to-Bac)
T1 sequence (Q07343 330-659 limits assumed): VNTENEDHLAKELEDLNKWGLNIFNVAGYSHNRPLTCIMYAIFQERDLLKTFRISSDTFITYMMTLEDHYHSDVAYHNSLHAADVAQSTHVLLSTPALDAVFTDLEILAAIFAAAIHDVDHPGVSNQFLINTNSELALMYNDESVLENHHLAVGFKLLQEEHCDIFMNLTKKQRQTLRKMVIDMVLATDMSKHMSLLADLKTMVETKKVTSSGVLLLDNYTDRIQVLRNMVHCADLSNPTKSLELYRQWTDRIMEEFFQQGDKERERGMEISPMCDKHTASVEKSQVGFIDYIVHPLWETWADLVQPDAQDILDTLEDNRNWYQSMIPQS
Source text: The cDNA of PDE4B catalytic domain (hereinafter abbreviated as Cat) was isolated from human RNA by RT-PCR. The isolated cDNA fragments were inserted into Sf9 insect cells using Gateway system (product of Invitrogen Corporation) and Bac-to-Bac (registered trademark) Baculovirus Expression system (product of Invitrogen Corporation) to express a target PDE protein. The recombinant PDE4Bcat was purified from the culture supernatants or cell extracts of Sf9 cells expressing high levels of the PDE protein by ion exchange chromatography and was used for the following experiments.
A 4 mmol/L solution of each test compound was serially diluted four-fold with a 15% DMSO solution to prepare solutions with concentrations of 15 nmol/L to 4 mmol/L (the final concentrations used in the experiments were 1.5 nmol/L to 400 μmol/L). 10 μL of the prepared test compound solutions, [3H] cAMP diluted with a buffer solution (40 mmol/L Tris-HCl (pH: 7.4), 10 mmol/L MgCl2), and 40 μL of the recombinant human PDE protein (2×10^−6 units, 1 unit is defined as the amount of PDE that breaks down 1 μmol/L of cAMP in one minute under the conditions of a pH of 7.5 and 30° C.) were added to a 96-well plate. The mixtures were reacted at 30° C. for 20 minutes. Then, the resultant mixtures were reacted at 65° C. for 2 minutes. Subsequently, 25 μL of 1 mg/mL5′-nucleotidase (Crotalus atrox venom, product of Sigma) was added to the mixtures, and the mixtures were reacted at 30° C. for 10 minutes. After completion of the reaction, 200 μL of a solution of Dowex (300 mg/mL Dowex 1×8-400 (product of Sigma Aldrich), 33% ethanol) was added to the mixtures, and the mixtures were shaken at 4° C. for 20 minutes. Subsequently, 200 μL of MicroScint 20 (product of Packard) was added to the mixtures, and measurement was performed using a scintillation counter (Topcount, product of Packard). IC50 values were calculated using Graph Pad Prism v3.03 (product of GraphPad Software). When […], the results were represented by “+.” When 0.1 μmol/L>the IC50 value, the results were represented by “++.”

[2] = tested on: histamine-induced bronchoconstriction; assay: Histamine-induced airway contraction reaction in guinea pigs; type: in vivo; conditions: Cavia porcellus, iv, 0.5 min, i.v., 30 seconds after administration, read-out: Inhibition ratio; for inhibition in vivo at 0.3 mg/kg: 0.3 mg/kg administration (results in brackets); for inhibition in vivo at 0.1 mg/kg: 0.1 mg/kg administration (not in brackets)
Method: Guinea pigs were anesthetized with pentobarbital (30 mg/kg, i.p.). A cannula for intravenous administration, a cannula for collecting blood and measuring blood pressure, and a tracheal cannula were inserted into the left external jugular vein, right internal carotid artery, and trachea, respectively. The guinea pigs were maintained on artificial respiration under the conditions of 60 times/min and 10 mL/kg/stroke. The airflow from the side branch of the tracheal cannula was measured by a bronchospasm transducer (Ugo-Basile) and recorded on a computer via Power Lab (ADInstruments Japan). The guinea pigs were immobilized with gallamine (10 mg/kg, i.v.), and histamine was administered at 10-minute intervals (12.5 μg/kg, i.v.). […] We examined the inhibitory action of test compounds on histamine-induced bronchoconstriction 30 seconds after compounds administration. Bronchoconstriction was recorded as the amount of airflow, and the results were represented by the ratio of the maximum value of the histamine-induced airflow 30 seconds after the administration to the maximum value of the airflow before the administration. When the inhibition ratio≧90%, the results were represented by “+++.” When 90%>the inhibition ratio≧70%, the results were represented by “++.” When 70%>the inhibition ratio≧30%, the results were represented by “+.” The results shown in brackets are for 0.3 mg/kg administration, and the other results are for 0.1 mg/kg administration.

| IC50 [1] [µmol/L] | SMILES | inhibition in vivo at 0.3 mg/kg [2] [%] | inhibition in vivo at 0.1 mg/kg [2] [%] |
| --- | --- | --- | --- |
| 0.1 to 10 | COc1ccc(C(=O)Nc2c(Cl)cncc2Cl)c2cc(C(=O)O)nn12 [Example 81, 4-(3,5-Dichloropyridin-4-ylcarbamoyl)-7-methoxypyrazolo[1,5-a]pyridine-2-carboxylic acid] | – | – |
| < 0.1 | COc1ccc(C(=O)Nc2c(Cl)cncc2Cl)c2ccnn12 [Example 40, 7-Methoxypyrazolo[1,5-a]pyridine-4-carboxylic acid (3,5-dichloropyridin-4-yl)amide] | 70 to 90 | – |
| < 0.1 | CCOc1ccc(C(=O)Nc2c(Cl)cncc2Cl)c2cc(C(F)F)nn12 [Example 59, 2-Difluoromethyl-7-ethoxypyrazolo[1,5-a]pyridine-4-carboxylic acid (3,5-dichloropyridin-4-yl)amide] | – | – |
| < 0.1 | COc1ccc(C(=O)Nc2c(Cl)cncc2Cl)c2cc(C=O)nn12 [Example 78, 2-Formyl-7-methoxypyrazolo[1,5-a]pyridine-4-carboxylic acid (3,5-dichloropyridin-4-yl)amide] | 70 to 90 | – |
| < 0.1 | COc1ccc(C(=O)Nc2c(Cl)cncc2Cl)c2cc(C3CC3)nn12 [Example 24, 2-Cyclopropyl-7-methoxypyrazolo[1,5-a]pyridine-4-carboxylic acid (3,5-dichloropyridin-4-yl)amide] | – | ≥ 90 |
| < 0.1 | COc1ccc(C(=O)Nc2c(Cl)cncc2Cl)c2cc(C(C)=O)nn12 [Example 80, 2-Acetyl-7-methoxypyrazolo[1,5-a]pyridine-4-carboxylic acid (3,5-dichloropyridin-4-yl)amide] | – | 30 to 70 |
| 0.1 to 10 | COc1ccc(C(=O)Nc2c(Cl)cncc2Cl)c2cc(C(C)C)nn12 [Example 32, 2-Isopropyl-7-methoxypyrazolo[1,5-a]pyridine-4-carboxylic acid (3,5-dichloropyridin-4-yl)amide] | – | 70 to 90 |
| < 0.1 | COc1ccc(C(=O)Nc2c(Cl)cncc2Cl)c2cc(C(F)F)nn12 [Example 58, 2-Difluoromethyl-7-methoxy-pyrazolo[1,5-a]pyridine-4-carboxylic acid (3,5-dichloropyridin-4-yl)amide] | – | ≥ 90 |
| < 0.1 | COCc1cc2c(C(=O)Nc3c(Cl)cncc3Cl)ccc(OC)n2n1 [Example 76, 7-Methoxy-2-methoxymethylpyrazolo[1,5-a]pyridine-4-carboxylic acid (3,5-dichloropyridin-4-yl)amide] | – | 70 to 90 |
| < 0.1 | COc1ccc(C(=O)Nc2c(Cl)cncc2Cl)c2cc(C#N)nn12 [Example 83, 2-Cyano-7-methoxypyrazolo[1,5-a]pyridine-4-carboxylic acid (3,5-dichloropyridin-4-yl)amide] | – | ≥ 90 |
| < 0.1 | COc1ccc(C(=O)Nc2c(Cl)cncc2Cl)c2cc(C(C)O)nn12 (stereo not drawn) [Example 79, 2-(1-Hydroxyethyl)-7-methoxypyrazolo[1,5-a]pyridine-4-carboxyl ic acid (3,5-dichloropyridin-4-yl)amide] | – | 30 to 70 |

Second part, the molecule before the results:

| SMILES | IC50 [1] [µmol/L] | inhibition in vivo at 0.3 mg/kg [2] [%] | inhibition in vivo at 0.1 mg/kg [2] [%] |
| --- | --- | --- | --- |
| COc1ccc(C(=O)Nc2c(Cl)c[n+](O)cc2Cl)c2cc(C3CC3)nn12 [Example 25, 2-Cyclopropyl-7-methoxypyrazolo[1,5-a]pyridine-4-carboxylic acid (3,5-dichloro-1-oxypyridin-4-yl)amide] | < 0.1 | ≥ 90 | – |
| COc1ccc(C(=O)Nc2c(Cl)c[n+]([O-])cc2Cl)c2ccnn12 [Example 41, 7-Methoxypyrazolo[1,5-a]pyridine-4-carboxylic acid (3,5-dichloro-1-oxypyridin-4-yl)amide] | < 0.1 | 30 to 70 | – |
| COc1ccc(C(=O)Nc2c(Cl)c[n+](O)cc2Cl)c2cc(C(C)C)nn12 [Example 33, 2-Isopropyl-7-methoxypyrazolo[1,5-a]pyridine-4-carboxylic acid (3,5-dichloro-1-oxypyridin-4-yl)amide] | < 0.1 | – | ≥ 90 |
| CCc1cc2c(C(=O)Nc3c(Cl)c[n+]([O-])cc3Cl)ccc(OC)n2n1 [Example 11, 2-Ethyl-7-methoxypyrazolo[1,5-a]pyridine-4-carboxylic acid (3,5-dichloto-1-oxypyridin-4-yl)amide] | < 0.1 | 70 to 90 | – |
| COc1ccc(C(=O)Nc2c(Cl)cncc2Cl)c2c(O)c(C(F)(F)F)nn12 [Example 119, 3-Hydroxy-7-methoxy-2-trifluoromethylpyrazolo[1,5-a]pyridine-4-carboxylic acid (3,5-dichloropyridin-4-yl)amide] | 0.1 to 10 | – | – |
| COc1ccc(C(=O)Nc2c(Cl)cncc2Cl)c2c(Cl)c(C(F)(F)F)nn12 [Example 118, 3-Chloro-7-methoxy-2-trifluoromethylpyrazolo[1,5-a]pyridine-4-carboxylic acid (3,5-dichloropyridin-4-yl)amide] | < 0.1 | – | – |
| CNc1ccc(C(=O)Nc2c(Cl)cncc2Cl)c2cc(C(F)(F)F)nn12 [Example 97, 7-Methylamino-2-trifluoromethylpyrazolo[1,5-a]pyridine-4-carboxylic acid (3,5-dichloropyridin-4-yl)amide] | < 0.1 | – | – |
| COc1ccc(C(=O)Nc2c(Cl)c[n+]([O-])cc2Cl)c2cc(C(F)(F)F)nn12 [Example 17, 7-Methoxy-2-trifluoromethylpyrazolo[1,5-a]pyridine-4-carboxylic acid (3,5-dichloro-1-oxypyridin-4-yl)amide] | < 0.1 | – | 30 to 70 |
| COc1ccc(C(=O)Nc2c(Cl)c[n+](O)cc2Cl)c2cc(C#N)nn12 [Example 71, 2-Cyano-7-methoxypyrazolo[1,5-a]pyridine-4-carboxylic acid (3,5-dichloro-1-oxypyridin-4-yl)amide] | < 0.1 | – | – |
| CC(=O)c1ccc(C(=O)Nc2c(Cl)cncc2Cl)c2cc(C(F)(F)F)nn12 [Example 108, 7-Acetyl-2-trifluoromethylpyrazolo[1,5-a]pyridine-4-carboxylic acid (3,5-dichloropyridin-4-yl)amide] | < 0.1 | – | – |
| CSc1ccc(C(=O)Nc2c(Cl)cncc2Cl)c2cc(C(F)(F)F)nn12 [Example 92, 7-Methylsulfanyl-2-trifluoromethylpyrazolo[1,5-a]pyridine-4-carboxylic acid (3,5-dichloropyridin-4-yl)amide] | < 0.1 | – | 30 to 70 |
| O=C(Nc1c(Cl)cncc1Cl)c1ccc(CO)n2nc(C(F)(F)F)cc12 [Example 105, 7-Hydroxymethyl-2-trifluoromethylpyrazolo[1,5-a]pyridine-4-carboxylic acid (3,5-dichloropyridin-4-yl)amide] | < 0.1 | – | ≥ 90 |
| COc1ccc(C(=O)Nc2c(Cl)cc(Cl)cc2Cl)c2cc(C(F)(F)F)nn12 [Example 18, 7-Methoxy-2-trifluoromethylpyrazolo[1,5-a]pyridine-4-carboxylic acid (2,4,6-trichlorophenyl)amide] | 0.1 to 10 | – | – |
| CCc1cc2c(C(=O)Nc3c(Cl)cncc3Cl)cccn2n1 [Example 48, 2-Ethylpyrazolo[1,5-a]pyridine-4-carboxylic acid (3,5-dichloropyridin-4-yl)amide] | 0.1 to 10 | – | – |
| COCc1ccc(C(=O)Nc2c(Cl)cncc2Cl)c2cc(C(F)(F)F)nn12 [Example 115, 7-Methoxymethyl-2-trifluoromethylpyrazolo[1,5-a]pyridine-4-carboxylic acid (3,5-dichloropyridin-4-yl)amide] | < 0.1 | – | – |
